In patent US20060003936A1, “Method for modulating the production of a selected protein in vivo” (priority 2002, published 2006):

What was measured:
[1] = target: T1, DHFR-HSV1 TK fusion protein (Homo sapiens, UniProt P00374, F32S/L23F); experiment: Western blot of DHFR-HSV-TK fusion protein in transduced colon cancer cells treated with antifolate; type: cell-based
T1 construct: HSV1 thymidine kinase (fusion partner); expressed in transfected cells; host or cells: HCT-8, HCT-116 and C85 human colorectal cancer cells, retrovirally transduced with SFG-DHFR/HSV-TK
Protocol: (§1) Retrovirus-producing cell lines were generated by transfection of DHFR-HSV1-TK plasmid in parental GP+envAM12 cells. Transfection was performed three times at cell densities of 30%, 50% and 75% using Superfect (Qiagen, Chatsworth, Calif.) as described by the manufacturer. Clones of the retrovirus were selected in 150 nM TMTX. Viral titers were determined against NIH 3T3 cells. Retrovirus-producing AM12V cells were grown in medium without antifolate to a density of 60-80%; the day before infection, the mdeium was changed. Viral transduction was performed by infecting colon cancer cells plated 48 hours before infection in 10 cm dishes. Four single virus exporsures with the desired multiplicity of infection (moi), each of 6 hour duration, were carried out. For each single exposure, fresh AM12V supernatant was filtered through a 0.45 μm cellulose acetate filter and supplemented with polybrene (8 μg/ml). The 2-hour viral transduction was performedin 6 well plates.
(§2) The transduced cells were treated with varying amounts of TMTX (10, 100 and 1000 μM) and levels of fusion protein were detected by Western blotting using either an anti-HSV-TK antibody or an anti-human DHFR antibody.
Three colorectal cancer cells lines (HCT-8, HCT-116 and a cell line, C85, recently established from a patient with liver metastasis) were transduced with the SFG-DHFR/HSV-TK fusion vector of Example 1. Transduction was verified by PCR using transgene specific primers and elevation of DHFR-HSVTK mRNA and protein expression.

[2] = tested on: HCT-8 cells (8LT, 8HT, 8LT-CT); experiment: GCV and TMTX cytotoxicities on transduced HCT-8 cells; type: cell-based, human
Protocol: Bulk transduction of HCT-116 and HCT-8 was carried out with an moi of 30 for 24 hours or an moi of 2.5 for 2 hours to produce cell lines 116HT and 116LT, and 8HT and 8LT, respectively.
GCV amd TMTX cytotoxicities were measured on the transduced cells.

[3] = tested on: HCT-8, HCT-116 and C85 colorectal cancer cells transduced with SFG-DHFR/HSV-TK; experiment: GCV sensitivity of transduced colon cancer cells; type: cell-based, human
Protocol: as §1, §2
Three colorectal cancer cells lines (HCT-8, HCT-116 and a cell line, C85, recently established from a patient with liver metastasis) were transduced with the SFG-DHFR/HSV-TK fusion vector of Example 1. […]

[4] = tested on: HCT-116 cells (116LT, 116HT); experiment: GCV and TMTX cytotoxicities on transduced HCT-116 cells; type: cell-based, human
Protocol: FIGS. 7A-D show GCV sensitivty and TMTX resisatnce in parental, tranduced and TMTX exposed colon cancer cells of the HCT-116 and HCT-8 cells lines. Bulk transduction of HCT-116 and HCT-8 was carried out with an moi of 30 for 24 hours or an moi of 2.5 for 2 hours to produce cell lines 116HT and 116LT, and 8HT and 8LT, respectively. Successful gene transfer and transgene expression was confirmed by PCR and Western blotting. […] Infection of 8LT was not detectable with the assay used.
GCV amd TMTX cytotoxicities were measured on the transduced cells. […] (FIGS. 7A and C). This finding correlates with observed levels of fusion protein expression in these cells.

[5] = tested on: tumors derived from 8LT-CT cells; experiment: PET imaging of 124I-FIAU uptake in transduced tumors; type: in vivo, rat; conditions: three cycles of 10 mg/kg TMTX, three times daily for three days per cycle, 7 treated and 7 control rats
Protocol: In a second set of experiments, tumors derived from 8LT-CT and parental HCT-8 cells were evaluated by in vivo imaging. Before the imaging, each animal received three cycles of 10 mg/kg of TMTX, three times daily for three days per cycle. Using PET and the tracer ^124I-FIAU an increase in tumor-signal intensity in TMTX-treated rats was observed.

[6] = tested on: DHFR-HSV1 TK fusion protein; experiment: DHFR-HSV1 TK fusion protein level in tumor tissue of treated rats; type: in vivo, rat; conditions: rats with flank tumors; 10 mg/kg once daily for three days or single 100 mg/kg; vs water-treated controls
Protocol: Rats bearing flank tumors were treated with 10 mg/kg of TMTX for three days (once daily), or with a single high dose of 100 mg/kg. The levels of DHFR-HSV1 TK fusion protein in the tumor tissue of antifolate treated rats, as well as in water-treated controls were analyzed. […] The mean increase was at least 2-fold.

DHFR-EGFP fusion protein = experiment: Fluorescence microscopy of EGFP expression in transfected GP+envAM12 cells; type: cell-based
Protocol: Transfections of parental GP+envAM12 cells (Markowitz et al., Virology 167: 400-405 (1988)) with EGFP-containing SFG-plasmids was carried out using DOTAP transfecting reagent (N-{1-(2,3-dioleyloxy)propyl]-N,N,N,-trimethylammonium methyl sulfate, Roche Molecular Biochemicals). Cells transfected with EGFP-expressing vectors were cultrued for at least 12 days and subsequently sorted for EGFP-positive cells using an FACS Vantage SE cell sorter (Becton Dickinson). For fluorescence microscopy, these cells were grown in T25 flasks. Confluent cells were cultured in fresh media with or without TMTX. Fluorescent images of randomly selected areas of the monolayer were taken with a Zeiss Axlovert S100 microscope.

T1 sequence (P00374 other isoform, or with tags, fused parts or gaps L23F/F32S): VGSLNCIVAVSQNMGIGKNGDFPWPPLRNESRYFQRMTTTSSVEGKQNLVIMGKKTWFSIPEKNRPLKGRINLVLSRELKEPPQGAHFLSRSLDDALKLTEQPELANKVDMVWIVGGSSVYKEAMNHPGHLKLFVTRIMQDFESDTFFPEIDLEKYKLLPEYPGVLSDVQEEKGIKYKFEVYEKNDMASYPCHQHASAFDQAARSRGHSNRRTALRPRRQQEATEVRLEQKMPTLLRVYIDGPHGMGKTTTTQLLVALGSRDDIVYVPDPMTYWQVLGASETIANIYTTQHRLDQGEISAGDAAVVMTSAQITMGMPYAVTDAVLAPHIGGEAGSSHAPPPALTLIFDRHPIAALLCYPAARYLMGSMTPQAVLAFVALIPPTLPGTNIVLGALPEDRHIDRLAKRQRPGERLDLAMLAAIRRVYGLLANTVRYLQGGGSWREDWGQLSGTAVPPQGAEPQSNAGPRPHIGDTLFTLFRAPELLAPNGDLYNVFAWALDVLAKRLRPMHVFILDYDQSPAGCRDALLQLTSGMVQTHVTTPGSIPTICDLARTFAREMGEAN

COc1cc([C@@H]2c3cc4c(cc3[C@@H](O[C@@H]3O[C@@H]5CO[C@@H](C)O[C@H]5[C@H](O)[C@H]3O)[C@H]3COC(=O)[C@H]23)OCO4)cc(OC)c1O [etoposide]
induction of the fusion protein ([1]; treatment of cells, concentration not given): did not cause induction

Nc1nc(O)c2ncn(COC(CO)CO)c2n1 [GCV, gancyclovir]
GCV cytotoxicity ([2]; 8HT cells): GCV sensitivity | increase in GCV sensitivity ([2]; HCT-8 cells treated chronically with increasing concentrations of TMTX (8LT-CT)): 250 fold | increase in sensitivity to GCV ([3]; transduced cells after cycles of nine day exposures to increasing TMTX, vs non-transduced cells): 250 fold | sensitivity to GCV ([3]; transduced cells compared to unselected or untransduced cells): increased sensitivity | GCV cytotoxicity compared with parental cell line ([4]; 116HT cells): higher | GCV cytotoxicity compared with parental cell line ([4]; 116LT cells): moderate

COc1cc(NCc2ccc3nc(N)nc(N)c3c2C)cc(OC)c1OC [TMTX, trimetrexate]
124I-FIAU accumulation in transduced tumor tissue vs untreated controls [5]: 2.6 fold | TMTX cytotoxicity ([2]; 8HT cells): TMTX resistance | mean increase of DHFR-HSV1 TK fusion protein in tumor tissue [6]: at least 2 fold | expression of DHFR-EGFP fusion protein (DHFR-EGFP fusion protein; DHFR-EGFP fusion vector, 1 μM, durable at 24 and 48 hours): increased | expression of EGFP (DHFR-EGFP fusion protein; plasmids expressing DHFR and EGFP separated by IRES, or just EGFP): not increased | TMTX resistance compared with parental cell line ([4]; 116HT cells): higher | TMTX resistance compared with parental cell line ([4]; 116LT cells): moderate | induction of expression of the DHFR-HSV1 TK fusion protein ([1]; concentration range 10^−2 to 1 μM): dose-dependent | fusion protein levels ([1]; high concentrations (1000 μM), without an increase in mRNA): transient increase in fusion protein levels | fusion protein expression (Western blot) ([1]; transduced colon cancer cells, TMTX 10, 100 and 1000 μM, anti-HSV-TK or anti-human DHFR antibody): upregulation of fusion protein expression was observed
